Laboratory results reported in patent US8492543B2, “Method for producing quinazoline derivative” (Eisai R&D Management Co., Ltd., priority 2007, dated 2013).
Like-named read-outs stand apart in the source and are kept apart here.

Assays:
CYP3A4 = test: Induction potency of drug metabolizing enzyme (CYP) using cryopreserved human hepatocytes: CYP3A4 mRNA; details: approx. 48 hours, mRNA relative to Rif 10 μM
Protocol: Cryopreserved human hepatocytes (XenoTeck) were rapidly thawed at 37° C., and viable cells were obtained using Hepatocytes Isolation Kit (Nosan Corporation). After cells prepared were diluted with ice cold William's Medium E (10% FBS, +PSG) to give a concentration of 5×10^5 viable cells/mL, the cells were seeded onto a 48-well collagen-coated plate (BD Biosciences) at a concentration of 1×10^5 cells/cm^2 and cultured at 37° C. in 5% CO2 for 24 hours. Then, the medium was replaced with Hepato-STIM (registered trade mark: BD Biosciences) (+EGF, PSG, −FBS), and the cells were further cultured at 37° C. in 5% CO2 for 24 hours. […] The culture medium containing test compound, β-NF or Rif was replaced every 24 hours. Test compound, β-NF and Rif were each dissolved in dimethyl sulfoxide (DMSO: Wako Pure Chemical Industries, Ltd.), and culture medium containing test compound (final concentrations; 1, 3 and 10 μM), β-NF (final concentration; 10 μM) or Rif (final concentration; 10 μM) was prepared by adding them to Hepato-STIM(+EGF, PSG, −FBS), respectively. […] The levels of mRNA for CYP1A1 and GAPDH were quantified using SYBR Green PCR Core Reagents Kit (Applied Biosystems), and those for CYP1A2 and that of CYP3A4 were measured using Taqman PCR Core Reagents Kit (Applied Biosystems) and ABI Prism 7900 Sequence Detection System (Applied Biosystems).
(§1) The ability of a test compound to induce CYP1A1 was calculated as follows: Ability of a test compound to induce CYP1A1(%)={[(amount of mRNA of CYP1A1 in test compound treated cells)/(amount of mRNA of GAPDH in test compound treated cells)]/[(amount of mRNA of CYP1A1 in control cells)/(amount of mRNA of GAPDH in control cells)]−1}/{[(amount of mRNA of CYP1A1 in positive control treated cells)/(amount of mRNA of GAPDH in positive control treated cells)]/[(amount of mRNA of CYP1A1 in control cells)/(amount of mRNA of GAPDH in control cells)]−1}×100
(§2) The ability to induce CYP1A2 or CYP3A4 was calculated in the same manner described above.

CYP1A1 = details: human, hepatocytes
Protocol: Cryopreserved human hepatocytes (XenoTeck) were rapidly thawed at 37° C., and viable cells were obtained using Hepatocytes Isolation Kit (Nosan Corporation). After cells prepared were diluted with ice cold William's Medium E (10% FBS, +PSG) to give a concentration of 5×10^5 viable cells/mL, the cells were seeded onto a 48-well collagen-coated plate (BD Biosciences) at a concentration of 1×10^5 cells/cm^2 and cultured at 37° C. in 5% CO2 for 24 hours. Then, the medium was replaced with Hepato-STIM (registered trade mark: BD Biosciences) (+EGF, PSG, −FBS), and the cells were further cultured at 37° C. in 5% CO2 for 24 hours. […] The culture medium containing test compound, β-NF or Rif was replaced every 24 hours. Test compound, β-NF and Rif were each dissolved in dimethyl sulfoxide (DMSO: Wako Pure Chemical Industries, Ltd.), and culture medium containing test compound (final concentrations; 1, 3 and 10 μM), β-NF (final concentration; 10 μM) or Rif (final concentration; 10 μM) was prepared by adding them to Hepato-STIM(+EGF, PSG, −FBS), respectively. Final concentration of DMSO was set to be 0.1%, and culture medium containing 0.1% DMSO was used for control. […] The levels of mRNA for CYP1A1 and GAPDH were quantified using SYBR Green PCR Core Reagents Kit (Applied Biosystems), and those for CYP1A2 and that of CYP3A4 were measured using Taqman PCR Core Reagents Kit (Applied Biosystems) and ABI Prism 7900 Sequence Detection System (Applied Biosystems).
as §1

CYP1A2 [1] = details: human, hepatocytes
Protocol: (§3) Cryopreserved human hepatocytes (XenoTeck) were rapidly thawed at 37° C., and viable cells were obtained using Hepatocytes Isolation Kit (Nosan Corporation). After cells prepared were diluted with ice cold William's Medium E (10% FBS, +PSG) to give a concentration of 5×10^5 viable cells/mL, the cells were seeded onto a 48-well collagen-coated plate (BD Biosciences) at a concentration of 1×10^5 cells/cm^2 and cultured at 37° C. in 5% CO2 for 24 hours. Then, the medium was replaced with Hepato-STIM (registered trade mark: BD Biosciences) (+EGF, PSG, −FBS), and the cells were further cultured at 37° C. in 5% CO2 for 24 hours. […] The culture medium containing test compound, β-NF or Rif was replaced every 24 hours. Test compound, β-NF and Rif were each dissolved in dimethyl sulfoxide (DMSO: Wako Pure Chemical Industries, Ltd.), and culture medium containing test compound (final concentrations; 1, 3 and 10 μM), β-NF (final concentration; 10 μM) or Rif (final concentration; 10 μM) was prepared by adding them to Hepato-STIM(+EGF, PSG, −FBS), respectively. Final concentration of DMSO was set to be 0.1%, and culture medium containing 0.1% DMSO was used for control. After completion of the treatment, the cells were washed with PBS once, and total RNA was purified using Total RNA Purification Kit (Applied Biosystems). The purified total RNA was subjected to reverse transcription reaction using TaqMan Reverse Transcription Reagents (Applied Biosystems) to synthesize cDNA, where oligo dT was used as a primer. The reaction was carried out using Gene Amp PCR system 9700 at 25° C. for 10 minutes, followed by at 48° C. for 60 minutes. Then, reverse transcriptase was deactivated at 95° C. for 10 minutes. The levels of mRNA for CYP1A1 and GAPDH were quantified using SYBR Green PCR Core Reagents Kit (Applied Biosystems), and those for CYP1A2 and that of CYP3A4 were measured using Taqman PCR Core Reagents Kit (Applied Biosystems) and ABI Prism 7900 Sequence Detection System (Applied Biosystems).
as §1, §2

CYPs = test: Induction potency on CYPs, overall statement (cryopreserved human hepatocytes); details: CYP1A1, CYP1A2, CYP3A4; 1, 3 and 10 μM
Protocol: Cryopreserved human hepatocytes (XenoTeck) were rapidly thawed at 37° C., and viable cells were obtained using Hepatocytes Isolation Kit (Nosan Corporation). After cells prepared were diluted with ice cold William's Medium E (10% FBS, +PSG) to give a concentration of 5×10^5 viable cells/mL, the cells were seeded onto a 48-well collagen-coated plate (BD Biosciences) at a concentration of 1×10^5 cells/cm^2 and cultured at 37° C. in 5% CO2 for 24 hours. Then, the medium was replaced with Hepato-STIM (registered trade mark: BD Biosciences) (+EGF, PSG, −FBS), and the cells were further cultured at 37° C. in 5% CO2 for 24 hours. […] The culture medium containing test compound, β-NF or Rif was replaced every 24 hours. […] The levels of mRNA for CYP1A1 and GAPDH were quantified using SYBR Green PCR Core Reagents Kit (Applied Biosystems), and those for CYP1A2 and that of CYP3A4 were measured using Taqman PCR Core Reagents Kit (Applied Biosystems) and ABI Prism 7900 Sequence Detection System (Applied Biosystems). […]
as §2

CYP1A2 [2] = test: Induction potency of drug metabolizing enzyme (CYP) using cryopreserved human hepatocytes: CYP1A2 mRNA; details: 10 μM, approx. 48 hours, mRNA relative to β-NF 10 μM
Protocol: as §3, §1, §2

COc1cc2nc(Cl)nc(-c3cccc(NC(=O)OC(C)(C)C)c3)c2cc1OC [Example 1, t-butyl [3-(2-chloro-6,7-dimethoxyquinazolin-4-yl)phenyl]carbamate]
Induction Ability compared to positive control (%) CYP3A4 (CYP3A4; 1 μM): −2.4%
Induction Ability compared to positive control (%) CYP3A4 (CYP3A4; 3 μM): −3.4%
Induction Ability compared to positive control (%) CYP3A4 (CYP3A4; 10 μM): −4.0%
Induction Ability compared to positive control (%) CYP1A1 (CYP1A1; 1 μM): 0.1%
Induction Ability compared to positive control (%) CYP1A1 (CYP1A1; 3 μM): 0.6%
Induction Ability compared to positive control (%) CYP1A1 (CYP1A1; 10 μM): 4.6%
Induction Ability compared to positive control (%) CYP1A2 (CYP1A2 [1]; 1 μM): −0.1%
Induction Ability compared to positive control (%) CYP1A2 (CYP1A2 [1]; 3 μM): −0.7%
Induction Ability compared to positive control (%) CYP1A2 (CYP1A2 [1]; 10 μM): 2.5%

CNc1nc(-c2cccc(NC(=O)c3ccc(C(=O)OC)cc3)c2)c2cc(OC)c(OC)cc2n1 [Example 10, methyl N-[3-(6,7-dimethoxy-2-methylaminoquinazolin-4-yl)phenyl]terephthalamic acid]
induction potency on CYPs compared with the comparative example (CYPs): lower induction potency on CYPs than the compound of the comparative example

O=c1cc(-c2ccccc2)oc2ccc3ccccc3c12 [β-naphthof lavone, β-naphthoflavone]
Induction Ability compared to positive control (%) CYP1A2 (CYP1A2 [2]): 100.0%
